The values below are quoted from earlier work in PMC9026741 (Bioorganic chemistry, 2020).

For this data set, the target named is T1, Nrp1 (Homo sapiens, UniProt O14786).
T1 sequence (O14786 274-586): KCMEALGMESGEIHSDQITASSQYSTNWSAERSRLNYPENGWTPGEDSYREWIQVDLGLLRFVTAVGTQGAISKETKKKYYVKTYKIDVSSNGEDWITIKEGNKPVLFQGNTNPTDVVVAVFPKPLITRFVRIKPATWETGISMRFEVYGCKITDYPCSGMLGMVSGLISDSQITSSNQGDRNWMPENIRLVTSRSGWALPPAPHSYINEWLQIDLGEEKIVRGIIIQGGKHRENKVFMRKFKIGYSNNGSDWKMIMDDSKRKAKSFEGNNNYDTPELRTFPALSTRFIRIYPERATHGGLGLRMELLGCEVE
Particulars: Nrp1 over Nrp2.

Regarding ATWLPPR, the “preference for Nrp1” value was “two-fold preference for Nrp1”.
